Source: BindingDB's records for doi:10.1006/jmbi.2000.3966 (Max-Planck-Institut Fuer Biochemie, 2000)

How the values were obtained:
Experiment in all cases: Determination of Inhibition Constants
Conditions in all cases: pH 8; 25 °C
[1] = biological target: Tissue-type plasminogen activator (Homo sapiens, UniProt P00750)
Description: (§1) The measurements were carried out on a microplate reader. Two concentrations of the substrate and five concentrations of the inhibitor were used in the assay. […] The Ki-values were calculated according to Dixon using a linear regression program. The Ki-values reported are means from at least three determinations.

Serine protease 1 = biological target: T1, Serine protease 1 (Bos taurus, UniProt P00760)
T1 sequence (P00760 whole entry): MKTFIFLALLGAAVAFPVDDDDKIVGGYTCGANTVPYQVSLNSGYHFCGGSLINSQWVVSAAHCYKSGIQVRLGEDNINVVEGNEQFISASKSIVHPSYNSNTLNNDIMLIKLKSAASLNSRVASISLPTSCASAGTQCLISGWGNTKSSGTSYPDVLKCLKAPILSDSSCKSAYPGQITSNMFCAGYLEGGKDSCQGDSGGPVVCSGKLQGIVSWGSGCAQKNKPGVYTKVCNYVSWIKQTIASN
Description: as §1

[2] = biological target: Urokinase-type plasminogen activator (Homo sapiens, UniProt P00749)
Description: as §1

Tissue-type plasminogen activator, sequence (P00750 whole entry): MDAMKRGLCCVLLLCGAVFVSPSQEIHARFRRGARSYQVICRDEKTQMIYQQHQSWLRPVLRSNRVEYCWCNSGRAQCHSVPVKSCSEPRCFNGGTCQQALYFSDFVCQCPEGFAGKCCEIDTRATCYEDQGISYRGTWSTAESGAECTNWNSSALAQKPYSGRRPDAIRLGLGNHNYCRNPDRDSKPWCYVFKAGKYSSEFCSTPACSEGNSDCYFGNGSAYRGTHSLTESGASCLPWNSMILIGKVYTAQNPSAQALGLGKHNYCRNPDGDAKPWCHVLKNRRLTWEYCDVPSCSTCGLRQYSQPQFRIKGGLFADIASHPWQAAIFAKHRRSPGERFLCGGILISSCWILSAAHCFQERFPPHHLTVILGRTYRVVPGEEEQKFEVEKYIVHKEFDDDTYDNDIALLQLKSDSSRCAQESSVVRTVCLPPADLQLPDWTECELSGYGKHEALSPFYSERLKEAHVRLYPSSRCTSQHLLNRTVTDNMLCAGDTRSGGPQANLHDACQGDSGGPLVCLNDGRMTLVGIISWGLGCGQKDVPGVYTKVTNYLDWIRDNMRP

| Structure (SMILES) | Ki [1] | Ki (Serine protease 1) | Ki [2] |
| --- | --- | --- | --- |
| CC(C)c1cc(C(C)C)c(S(=O)(=O)N[C@@H](Cc2cccc(C(=N)N)c2)C(=O)N2CCN(C(=O)CCN)CC2)c(C(C)C)c1 [3-[3-(4-beta-alanylpiperazin-1-yl)-3-oxo-2-({[2,4,6-tris(1-methylethyl)phenyl]sulfonyl}amino)propyl]benzenecarboximidamide] | 8.7 µM | 0.6 µM | – |
| CCOC(=O)N1CCN(C(=O)C(Cc2cccc(C(=N)N)c2)NS(=O)(=O)c2c(C(C)C)cc(C(C)C)cc2C(C)C)CC1 (stereo not given) | 4.9 µM | 0.037 µM | 0.41 µM |
| NC(N)=Nc1ccc(CNC(=O)NC23CC4CC(CC(C4)C2)C3)cc1 [3-adamantan-1-yl-1-[(4-carbamimidamidophenyl)methyl]urea] | > 1000 µM | 46 µM | 2.4 µM |
| N=C(N)NC(=O)c1nc(Cl)c(N)nc1N [3,5-diamino-N-carbamimidoyl-6-chloropyrazine-2-carboxamide] | > 1000 µM | 32 µM | – |
